The values below are quoted from earlier work in US20220117915A1, “METHODS OF TREATING ACUTE STRESS DISORDER AND POSTTRAUMATIC STRESS DISORDER” (Tonix Pharma Holdings Limited, priority 2018, published 2022).

Series [1] deals with alpha-adrenergic-1A (α1A) receptor (Homo sapiens, UniProt P35348).
The target in series [2] is serotonergic-2A (5-HT2A) receptor (Homo sapiens, UniProt P28223).
The conditions of series [3]: ASD or very early PTSD.

Chain of alpha-adrenergic-1A (α1A) receptor (P35348 whole entry): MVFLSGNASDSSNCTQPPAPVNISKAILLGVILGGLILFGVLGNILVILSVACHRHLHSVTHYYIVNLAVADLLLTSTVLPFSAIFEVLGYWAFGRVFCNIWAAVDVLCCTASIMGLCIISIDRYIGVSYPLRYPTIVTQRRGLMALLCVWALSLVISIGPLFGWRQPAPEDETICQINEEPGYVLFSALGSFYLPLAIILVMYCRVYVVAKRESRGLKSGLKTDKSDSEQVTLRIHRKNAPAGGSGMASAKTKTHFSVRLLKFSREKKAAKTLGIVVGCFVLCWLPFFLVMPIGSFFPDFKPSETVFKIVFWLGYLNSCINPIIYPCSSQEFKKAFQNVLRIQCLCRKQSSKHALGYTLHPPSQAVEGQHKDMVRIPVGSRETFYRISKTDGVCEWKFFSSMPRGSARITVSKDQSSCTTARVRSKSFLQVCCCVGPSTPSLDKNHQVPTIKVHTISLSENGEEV
Chain of serotonergic-2A (5-HT2A) receptor (P28223 whole entry, species assumed): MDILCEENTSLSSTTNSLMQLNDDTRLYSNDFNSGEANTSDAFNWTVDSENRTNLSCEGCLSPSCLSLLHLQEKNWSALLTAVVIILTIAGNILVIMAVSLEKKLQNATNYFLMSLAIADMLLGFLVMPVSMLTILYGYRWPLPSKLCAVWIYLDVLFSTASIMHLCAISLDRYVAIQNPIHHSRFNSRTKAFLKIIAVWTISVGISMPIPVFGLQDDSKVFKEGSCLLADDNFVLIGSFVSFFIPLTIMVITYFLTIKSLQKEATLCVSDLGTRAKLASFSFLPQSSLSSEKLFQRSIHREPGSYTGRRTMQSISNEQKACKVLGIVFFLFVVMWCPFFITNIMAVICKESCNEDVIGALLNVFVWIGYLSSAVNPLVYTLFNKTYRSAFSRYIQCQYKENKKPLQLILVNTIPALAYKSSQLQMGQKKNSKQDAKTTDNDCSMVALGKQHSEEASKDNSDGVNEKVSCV

On to `Fc1ccc([C@@H]2CCNC[C@H]2COc2ccc3c(c2)OCO3)cc1` [paroxetine], for which, for the setting “long-standing PTSD, average of 15 years since the trauma”, the “efficacy as a PTSD treatment” value is “offered patients with long-standing PTSD relief”. Further, where the note is “trauma more than 5 years prior to treatment versus more recent trauma”, the “improvement by time since trauma” value was “greater improvement”.
Take `CN(C)CCC=C1c2ccccc2C=Cc2ccccc21` [Cyclobenzaprine, 3-(5H-dibenzola[a,d]cyclohepten-5-ylidene)-N,N-dimethyl-1 propanamine]: the “α1A receptor antagonist activity” value in series [1] is listed as “potent”. For the same compound, the “5-HT2A receptor antagonist activity” value in series [2] is reported as “potent”.
Turning to `CN(C)CCC[C@@]1(c2ccc(F)cc2)OCc2cc(C#N)ccc21` [escitalopram], in series [3], the “preventing development of PTSD versus placebo” value is recorded as “failed to perform any better than the placebo”.
